Each structure is given as a SMILES string. Read-outs that look alike come from different tables or passages of the source.

The subject of this assay is Mycosphaerella graminicola; Anamorph: Septoria tritici; Bayer Code SEPTTR. In words: Leaf blotch of wheat, foliar fungicide treatment, one day protectant (1DP) or three day curative (3DC). It counts as in vivo, Septoria tritici on wheat plants (variety Yuma). Particulars: Zymoseptoria tritici, rating of percent disease control.
The mark [1] stands for this setting: 24 h, one day protectant (1DP), read-out: SETTTR 1DP 25 ppm.
Where [2] appears, read: 24 h, one day protectant (1DP), read-out: SEPTTR 1DP 100 ppm.
Where [3] appears, read: 72 h, three day curative (3DC), read-out: SEPTTR 3DC 25 ppm.
[4] abbreviates: 72 h, three day curative (3DC), read-out: SEPTTR 3DC 100 ppm.

On to `ON(Cc1ccccc1)c1nc(OCc2ccc(F)cc2)ncc1F` [Compound 235], for which the pest or weed control at 25 ppm under setting [1] lay in the range of 76 to 100% and the pest or weed control at 25 ppm under setting [3] fell in the range of 51 to 75%. Moreover, the pest or weed control at 100 ppm is, setting by setting: under setting [2], 76 to 100%; under setting [4], 76 to 100%.

On to `CNc1nc(OCc2cccs2)ncc1F` [Compound 237], for which the pest or weed control at 25 ppm was 0 to 25% under setting [1] and 0 to 25% under setting [3]. The pest or weed control at 100 ppm is, setting by setting: under setting [2], 0 to 25%; under setting [4], 0 to 25%.

Take `CCC(Nc1nc(OCc2ccc(F)cc2)ncc1F)Nc1nc(OCc2ccc(F)cc2)ncc1F` [Compound 238]: the pest or weed control at 25 ppm was in the range of 0 to 25% under setting [1] and 0 to 25% under setting [3]. Besides, the pest or weed control at 100 ppm reads like this: under setting [2], 51 to 75%; under setting [4], 26 to 50%.

Take `COc1ccccc1COc1ncc(F)c(NC(=S)Nc2ccccc2F)n1` [Compound 239]: the pest or weed control at 25 ppm fell in the range of 76 to 100% under setting [1] and 51 to 75% under setting [3]. For the same compound, the pest or weed control at 100 ppm reads like this: under setting [2], 76 to 100%; under setting [4], 76 to 100%.

For the compound `Nc1nc(OCCc2ccccc2Cl)ncc1F` [Compound 240], the pest or weed control at 25 ppm reads like this: under setting [1], 0 to 25%; under setting [3], 0 to 25%. For the same compound, the pest or weed control at 100 ppm by setting is: under setting [2], 26 to 50%; under setting [4], 0 to 25%.

`COc1ccc(COc2ncc(F)c(/N=C/N3CCOCC3)n2)cc1F` [Compound 241]: the pest or weed control at 25 ppm reads like this: under setting [1], 76 to 100%; under setting [3], 76 to 100%. The pest or weed control at 100 ppm runs as follows: under setting [2], 76 to 100%; under setting [4], 51 to 75%.

In the case of `Cc1ccc(COc2ncc(F)c(NNC3CCCCC3)n2)cc1` [Compound 244], the pest or weed control at 25 ppm under setting [1] was 0 to 25% and the pest or weed control at 25 ppm under setting [3] lay in the range of 0 to 25%. Also, the pest or weed control at 100 ppm runs as follows: under setting [2], 76 to 100%; under setting [4], 76 to 100%.

As for `Cn1ccc(COc2ncc(F)c(NCO)n2)n1` [Compound 245], the pest or weed control at 25 ppm runs as follows: under setting [1], 51 to 75%; under setting [3], 51 to 75%. The pest or weed control at 100 ppm by setting is: under setting [2], 76 to 100%; under setting [4], 76 to 100%.

With `Cc1cc(Cl)ccc1Oc1ncc(F)c(N)n1` [Compound 246], under setting [1], the pest or weed control at 25 ppm lay in the range of 0 to 25%. Further, the pest or weed control at 100 ppm under setting [2] fell in the range of 0 to 25%.

`CN(C)/C=N/c1nc(OC(=O)C2CCCCC2)ncc1F` [Compound 247]: the pest or weed control at 25 ppm reads like this: under setting [1], 76 to 100%; under setting [3], 76 to 100%. Further, the pest or weed control at 100 ppm by setting is: under setting [2], 76 to 100%; under setting [4], 76 to 100%.

On to `COc1ccc(COc2ncc(F)c(NCc3ccccc3F)n2)cc1` [Compound 249], for which the pest or weed control at 25 ppm reads like this: under setting [1], 26 to 50%; under setting [3], 26 to 50%. Besides, the pest or weed control at 100 ppm runs as follows: under setting [2], 76 to 100%; under setting [4], 51 to 75%.

With `CN(C)/C=N/c1nc(Cl)ncc1F` [Compound 252], the pest or weed control at 25 ppm is 26 to 50% under setting [1] and 0 to 25% under setting [3]. The pest or weed control at 100 ppm runs as follows: under setting [2], 26 to 50%; under setting [4], 0 to 25%.

Turning to `Cc1ccc(COc2ncc(F)c(N(C)N)n2)cc1` [Compound 253], the pest or weed control at 25 ppm was 26 to 50% under setting [1] and 51 to 75% under setting [3]. In addition, the pest or weed control at 100 ppm under setting [2] fell in the range of 76 to 100% and the pest or weed control at 100 ppm under setting [4] was 76 to 100%.

For the compound `C=C(C)COc1ncc(F)c(N)n1` [Compound 256], the pest or weed control at 25 ppm reads like this: under setting [1], 0 to 25%; under setting [3], 0 to 25%. For the same compound, the pest or weed control at 100 ppm was 0 to 25% under setting [2] and 26 to 50% under setting [4].

With `CCOCNc1nc(OCc2ccc(F)cc2)ncc1F` [Compound 257], the pest or weed control at 25 ppm under setting [1] lay within 51 to 75% and the pest or weed control at 25 ppm under setting [3] is 51 to 75%. Moreover, the pest or weed control at 100 ppm under setting [2] lay within 76 to 100% and the pest or weed control at 100 ppm under setting [4] was 76 to 100%.

Regarding `NNc1nc(OCc2ccccc2)ncc1F` [Compound 258], the pest or weed control at 25 ppm was in the range of 51 to 75% under setting [1] and 26 to 50% under setting [3]. Also, the pest or weed control at 100 ppm reads like this: under setting [2], 76 to 100%; under setting [4], 51 to 75%.

`CC(=O)OCNc1nc(OCc2ccc(F)cc2)ncc1F` [Compound 259]: the pest or weed control at 25 ppm is, setting by setting: under setting [1], 51 to 75%; under setting [3], 76 to 100%. The pest or weed control at 100 ppm is, setting by setting: under setting [2], 76 to 100%; under setting [4], 76 to 100%.

`CN1CCCC/C1=N\c1nc(OCc2cccc(C#N)c2)ncc1F` [Compound 261]: the pest or weed control at 25 ppm lay in the range of 51 to 75% under setting [1] and 51 to 75% under setting [3]. Besides, the pest or weed control at 100 ppm is, setting by setting: under setting [2], 76 to 100%; under setting [4], 76 to 100%.

Consider `O=C(Nc1nc(OCc2ccc(F)cc2)ncc1F)OCCl` [Compound 262], for which the pest or weed control at 25 ppm by setting is: under setting [1], 51 to 75%; under setting [3], 76 to 100%. The pest or weed control at 100 ppm lay within 76 to 100% under setting [2] and 76 to 100% under setting [4].

For the compound `COc1ccc(S(=O)(=O)Oc2ncc(F)c(/N=C/N(C)C)n2)cc1` [Compound 264], the pest or weed control at 25 ppm lay in the range of 51 to 75% under setting [1] and 76 to 100% under setting [3]. For the same compound, the pest or weed control at 100 ppm reads like this: under setting [2], 76 to 100%; under setting [4], 76 to 100%.

As to `Fc1cccc(COc2ncc(F)c(NC(=S)Nc3ccccc3F)n2)c1` [Compound 266], the pest or weed control at 25 ppm was 76 to 100% under setting [1] and 0 to 25% under setting [3]. Also, the pest or weed control at 100 ppm lay in the range of 76 to 100% under setting [2] and 76 to 100% under setting [4].

Take `CC(C)Oc1ncc(F)c(N)n1` [Compound 267]: the pest or weed control at 25 ppm under setting [1] fell in the range of 0 to 25% and the pest or weed control at 25 ppm under setting [3] fell in the range of 0 to 25%. In addition, the pest or weed control at 100 ppm reads like this: under setting [2], 0 to 25%; under setting [4], 0 to 25%.

`COc1cccc(COc2ncc(F)c(OC)n2)c1` [Compound 269]: the pest or weed control at 25 ppm runs as follows: under setting [1], 0 to 25%; under setting [3], 0 to 25%. In addition, the pest or weed control at 100 ppm reads like this: under setting [2], 0 to 25%; under setting [4], 0 to 25%.

Take `COCCOC(=O)Nc1nc(OCc2cccc(F)c2)ncc1F` [Compound 273]: the pest or weed control at 25 ppm lay within 51 to 75% under setting [1] and 76 to 100% under setting [3]. The pest or weed control at 100 ppm is, setting by setting: under setting [2], 76 to 100%; under setting [4], 76 to 100%.

As to `CN1CCC/C1=N\c1nc(OCc2ccc(F)cc2)ncc1F` [Compound 274], the pest or weed control at 25 ppm runs as follows: under setting [1], 76 to 100%; under setting [3], 76 to 100%. Also, the pest or weed control at 100 ppm runs as follows: under setting [2], 76 to 100%; under setting [4], 76 to 100%.

As for `Nc1nc(OCc2cscn2)ncc1F` [Compound 275], the pest or weed control at 25 ppm was 76 to 100% under setting [1] and 76 to 100% under setting [3]. The pest or weed control at 100 ppm under setting [2] lay in the range of 76 to 100% and the pest or weed control at 100 ppm under setting [4] was 76 to 100%.

`CCOC(=O)Nc1nc(OCc2cccc(OC)c2)ncc1F` [Compound 276]: the pest or weed control at 25 ppm lay in the range of 76 to 100% under setting [1] and 76 to 100% under setting [3]. In addition, the pest or weed control at 100 ppm is 76 to 100% under setting [2] and 76 to 100% under setting [4].

For `CC[Si](CC)(CC)Nc1nc(OCCCOC)ncc1F` [Compound 279], the pest or weed control at 25 ppm runs as follows: under setting [1], 51 to 75%; under setting [3], 76 to 100%. Also, the pest or weed control at 100 ppm is 76 to 100% under setting [2] and 76 to 100% under setting [4].

For `COCCOC(=O)Nc1nc(OCc2ccc(F)cc2)ncc1F` [Compound 280], the pest or weed control at 25 ppm reads like this: under setting [1], 76 to 100%; under setting [3], 76 to 100%. Also, the pest or weed control at 100 ppm lay within 76 to 100% under setting [2] and 76 to 100% under setting [4].

Turning to `Fc1cnc(OCc2ccccc2)nc1NNc1ccccc1` [Compound 282], the pest or weed control at 25 ppm by setting is: under setting [1], 0 to 25%; under setting [3], 26 to 50%. Moreover, the pest or weed control at 100 ppm lay in the range of 26 to 50% under setting [2] and 51 to 75% under setting [4].

`O=[N+]([O-])c1ccccc1NNc1nc(OCc2ccc(Cl)c(Cl)c2)ncc1F` [Compound 283]: the pest or weed control at 25 ppm was 51 to 75% under setting [1] and 0 to 25% under setting [3]. Further, the pest or weed control at 100 ppm reads like this: under setting [2], 76 to 100%; under setting [4], 26 to 50%.

As to `Nc1nc(OCc2ccc(O)cc2)ncc1F` [Compound 284], the pest or weed control at 25 ppm reads like this: under setting [1], 0 to 25%; under setting [3], 0 to 25%. Also, the pest or weed control at 100 ppm under setting [2] lay in the range of 0 to 25% and the pest or weed control at 100 ppm under setting [4] is 0 to 25%.

`C/C=C(C)/C=N/Nc1nc(OCc2cccc(OC)c2)ncc1F` [Compound 285]: the pest or weed control at 25 ppm by setting is: under setting [1], 51 to 75%; under setting [3], 26 to 50%. The pest or weed control at 100 ppm is, setting by setting: under setting [2], 76 to 100%; under setting [4], 26 to 50%.

Turning to `CCc1ccccc1COc1ncc(F)c(N)n1` [Compound 286], the pest or weed control at 25 ppm under setting [1] was in the range of 76 to 100% and the pest or weed control at 25 ppm under setting [3] lay within 51 to 75%. Also, the pest or weed control at 100 ppm runs as follows: under setting [2], 76 to 100%; under setting [4], 76 to 100%.

Turning to `CCCCCNC(=S)Nc1nc(OCc2ccc(C)cc2)ncc1F` [Compound 287], the pest or weed control at 25 ppm by setting is: under setting [1], 76 to 100%; under setting [3], 76 to 100%. Also, the pest or weed control at 100 ppm by setting is: under setting [2], 76 to 100%; under setting [4], 76 to 100%.

For the compound `Nc1nc(OCc2ccc(F)cc2F)ncc1F` [Compound 289], the pest or weed control at 25 ppm under setting [1] is 76 to 100% and the pest or weed control at 25 ppm under setting [3] was 76 to 100%. The pest or weed control at 100 ppm under setting [2] lay in the range of 76 to 100% and the pest or weed control at 100 ppm under setting [4] fell in the range of 76 to 100%.

`O=C(Nc1ccccc1F)Nc1nc(OCc2ccccc2)ncc1F` [Compound 291]: the pest or weed control at 25 ppm is, setting by setting: under setting [1], 0 to 25%; under setting [3], 0 to 25%. Also, the pest or weed control at 100 ppm was 0 to 25% under setting [2] and 26 to 50% under setting [4].

Source of the values: US9204653B2, “5-fluoro pyrimidine derivatives” (DOW AGROSCIENCES LLC, priority 2008, dated 2015).
